We go through one compound from patent US20230109717A1 (GAIA BioMedicine Inc., priority 2020, published 2023).

Entries after “also recorded” stand apart in the source; their conditions may differ.

One series deals with SKOV3 sphere. Briefly: Evaluation of thawed highly active NK cells in a solid tumor model (3D killing assay). The series is classed as cell-based, human. Conditions: added before freezing at 800 μM (preferable between 2,400 μM and 267 μM). On the procedure: To one of SKOV3 sphere inoculated beforehand in each well of a […] plate, 50 μL of the prepared NK cells were added, and allowed to react for 4 days at 37° C. under 5% CO2. Then, the cells were detached with Accutase, collected, and cultured in the RPMI medium on a 24-well plate for expansion. After 17 days of the expansion culture at 37° C. under 5% CO2, the cells were fixed with 4% PFA, stained with DAPI, and observed under a fluorescence microscope (BZ-9000, KEYENCE), and BZ-II Analysis Application was used to quantify the area of SKOV3 that was not injured by the NK cells.
The SKOV3 cells (human ovarian cancer cell line) were prepared at a density of 3×10^4 cells/mL in 10% FBS/RPMI 1640, and inoculated onto a 96-well plate in an amount of 3×10^3 cells/100 μL per well. Spheres were prepared by incubating the cells at 37° C. for 3 days under 5% CO2.

The next series has as its system K562 cells. Briefly: Cytotoxic activity rate (% Lysis) of freeze-thawed highly active NK cells against K562 cells. The series is classed as cell-based. As to conditions: for Activity: Exmp. 7, collect. method 2. On the procedure:
Cytotoxic activity can be expressed as the percentage of target cells killed by effector cells, and is calculated in accordance with the following equation.
(Cell death observed in co-culture with effector cells−Spontaneous cell death (negative control))/(Maximum cell death (positive control)−Spontaneous cell death (negative control))×100
For the measurement of cytotoxic activity, a group of the K562 cells reacted with the NK cells, a group consisting solely of the K562 cells as a negative control, and a group of the K562 cells fixed with 10% formalin as a positive control were prepared.
After incubation for the times indicated for the groups, the cells were collected, and prepared at a density of 2×10^6 cells/mL in 10% FBS/RPMI 1640.
The K562 cells (human chronic myelogenous leukemia cell line) were suspended in serum-free RPMI 1640 medium, stained with PKH26 Red Fluorescent Cell Linker Kit (Sigma, PKH26GL-1KT), and finally prepared at a density of 2×10^6 cells/mL in 10% FBS/RPMI 1640.
The NK cells and K562 cells were added and mixed in wells of 96-well plate (IWAKI, 4870-800SP) at a cell ratio of 1:1, and allowed to react at 37° C. for 2 hours under 5% CO2. After the reaction, the plate was centrifuged (500×g, 5 minutes), and the supernatant was removed. Then, a 7-AAD solution diluted with PBS was added to the cells to suspend the cells, and the suspension was incubated at room temperature for 20 minutes. […]
For the measurement of cytotoxic activity, a group of the NK cells reacted with the K562 cells, a group solely consisting of the K562 cells as a negative control, and a group of the K562 cells fixed with 10% formalin as a positive control were prepared.
The cells were thawed and diluted by the method described above, and a necessary amount of the cells were taken on the basis of the number of viable cells at the time of freezing, and then prepared at a density of 2×10^6 cells/mL in 10% FBS/RPMI 1640.
The K562 cells were suspended in serum-free RPMI 1640 medium, stained with PKH26 Red Fluorescent Cell Linker Kit, and then prepared at a density of 2×10^6 cells/mL in 10% FBS/RPMI 1640. […]
For the measurement of cytotoxic activity, a group of NK cells reacted with K562 cells, a group of K562 cells only as a negative control, and a group of K562 cells fixed with 10% formalin as a positive control were prepared. […]
(9-2) Cytotoxic activity was measured in the same manner as described in the section of (9-1), but after thawing and dilution, the cells were left to stand for up to 6 hours, and cytotoxic activity was measured by the method described in the section b) mentioned above at the time points of 2, 5, and 6 hours. In detail, the NK cells and K562 cells were added to each well of a 96-well plate (IWAKI, 4870-800SP) at a cell ratio of 1:1, mixed, and then allowed to react at 37° C. for 2 hours under 5% CO2.

Regarding `C[C@H](CCC(=O)NCCS(=O)(=O)O)[C@H]1CC[C@H]2[C@@H]3[C@@H](O)C[C@@H]4C[C@H](O)CC[C@]4(C)[C@H]3CC[C@]12C` [TUDCA, tauroursodeoxycholic acid dihydrate], the “Killing activity against the solid tumor model” value in the series with SKOV3 sphere is recorded as “higher killing activity”. Further, the Activity result in the series on K562 cells (pretreatment KBM + 266 μM TUDCA 2 h, thawing PlasmaLyte + IL-2, R.T. 1 h) was “A (A means 70% or higher)”; in the series on K562 cells (pretreatment KBM + 266 μM TUDCA 2 h, thawing PlasmaLyte + IL-2, R.T. 1 h, then KBM 2 h), “A (A means 70% or higher)”; in the series on K562 cells (pretreatment KBM + 266 μM TUDCA 2 h, thawing PlasmaLyte + IL-2, R.T. 3 h) it was “A (A means 70% or higher)”; with K562 cells (pretreatment KBM + 266 μM TUDCA 2 h, thawing PlasmaLyte R.T. 1 h) it was “A (A means 70% or higher)”; in the series on K562 cells (pretreatment KBM + 266 μM TUDCA 2 h, thawing PlasmaLyte R.T. 1 h, then KBM 2 h), “A (A means 70% or higher)”; in the series with K562 cells (pretreatment KBM + 266 μM TUDCA 2 h, thawing PlasmaLyte R.T. 3 h), “A (A means 70% or higher)”. Besides, the Activity entry is listed as “A (A means 70% or higher)” in the series on K562 cells (pretreatment KBM + 800 μM TUDCA 2 h, thawing PlasmaLyte + IL-2, R.T. 1 h); “A (A means 70% or higher)” with K562 cells (pretreatment KBM + 800 μM TUDCA 2 h, thawing PlasmaLyte + IL-2, R.T. 1 h, then KBM 2 h); “A (A means 70% or higher)” in the series with K562 cells (pretreatment KBM + 800 μM TUDCA 2 h, thawing PlasmaLyte + IL-2, R.T. 3 h); “A (A means 70% or higher)” in the series with K562 cells (pretreatment KBM + 800 μM TUDCA 2 h, thawing PlasmaLyte R.T. 1 h); “A (A means 70% or higher)” in the series with K562 cells (pretreatment KBM + 800 μM TUDCA 2 h, thawing PlasmaLyte R.T. 1 h, then KBM 2 h); “A (A means 70% or higher)” in the series with K562 cells (pretreatment KBM + 800 μM TUDCA 2 h, thawing PlasmaLyte R.T. 3 h). In addition, the Activity entry in the series with K562 cells (pretreatment KBM + 2400 μM TUDCA 2 h, thawing PlasmaLyte + IL-2, R.T. 1 h) is on record as “A (A means 70% or higher)”; in the series on K562 cells (pretreatment KBM + 2400 μM TUDCA 2 h, thawing PlasmaLyte + IL-2, R.T. 1 h, then KBM 2 h) it was “A (A means 70% or higher)”; in the series on K562 cells (pretreatment KBM + 2400 μM TUDCA 2 h, thawing PlasmaLyte + IL-2, R.T. 3 h), “A (A means 70% or higher)”; with K562 cells (pretreatment KBM + 2400 μM TUDCA 2 h, thawing PlasmaLyte R.T. 1 h) it was “A (A means 70% or higher)”; in the series with K562 cells (pretreatment KBM + 2400 μM TUDCA 2 h, thawing PlasmaLyte R.T. 1 h, then KBM 2 h), “A (A means 70% or higher)”; in the series with K562 cells (pretreatment KBM + 2400 μM TUDCA 2 h, thawing PlasmaLyte R.T. 3 h), “A (A means 70% or higher)”. Besides, the “Cytotoxic activity of frozen and thawed highly active NK cells” value with K562 cells (pretreatment 2 hours, 10 to 810 μM, Plasma-Lyte A after thawing, 1 and 3 hours, K562, E:T 2:1, 2 hours, Example 6, dihydrate) is given as “Improvement of the cytotoxic activity; also recorded: improved in a TUDCA concentration-dependent manner”.
